Key:
mammalian cells = details: cited from earlier work
[1] = ITC of bivalent cation binding to plectasin in solution; details: mean of duplicate, read-out: Kd, Mg^2+ binding to plectasin (ITC)
[2] = Confocal microscopy of GUVs doped with Und-NBD-lipid II; details: GUVs 0.4 mol% Und-NBD-LII in DOPC, 1 μM antibiotic
Description: GUVs were prepared by electroformation using in-house build Teflon cells with two titanium wires as electrodes. About 1 μl of 0.5 mM DOPC with 0.4 mol% NBD–lipid II in 2:1 CHCl3/MeOH was brushed on both electrodes and thoroughly dried under vacuum. Next, the cell was filled with 350 μl 300 mM sucrose, and GUVs were formed by applying an oscillating voltage (sine wave, 2 V, 10 Hz) for 90 min and released from the electrodes (square wave, 2 V, 2 Hz). Microscopy slides were precoated using a 1 mg ml^−1 BSA solution. Slides were filled with 300 μl 300 mM glucose solution, followed by addition of the antibiotic and finally 30–50 μl GUV solution. The GUVs were imaged using a Zeiss LSM 880 confocal microscope with a ×63/1.2NA glycerol objective lens. Green fluorescence (530–545 nm) was detected after excitation with a 488 nm laser.

S. pyogenes M3 = assay: MIC assays under standard conditions; assay type: cell-based, Streptococcus pyogenes; details: Supplementary Table 1; cation-adjusted MHB + 5% lysed horse blood, 5% CO2, 20–24 h
Description: Plectasin and analogues were serially diluted in cation-adjusted Mueller–Hinton broth (MHB) in round-bottom polypropylene 96-well plates (50 µl per well). Selected bacterial strains were grown from glycerol stocks on blood agar plates. Individual colonies were inoculated in TSB and incubated at 37 °C while shaking until OD600 reached 0.5. Bacterial suspensions were then diluted 100 times in cation-adjusted MHB and distributed (50 μl per well) over the microplate containing the diluted plectasin solutions. Plates were covered by a gas-permeable adhesive membrane and incubated at 37 °C while shaking. MICs were determined by visual inspection after 16–20 h (Staphylococcus) or 20–24 h (Streptococcus). For Streptococcus strains, the broth was additionally supplemented with 5% lysed horse blood, and the microplates were incubated under 5% CO2 atmosphere. In the assays, we used the following strains: S. simulans, S. pneumoniae serotype 8, S. pneumoniae ATCC6305 and Streptococcus pyogenes M3.

[3] = Tryptophan fluorescence spectroscopy, lipid II binding affinity
Description: Plectasin’s single tryptophan can be used to monitor insertion into the membrane. Measurements were done on a Cary Eclipse (FL0904M005) fluorimeter at 20 °C under constant stirring in a 4 × 10 mm quartz cuvette. For titration experiments, the cuvette was oriented perpendicular to the excitation beam to minimize scattering. LUVs with or without 2 mol% lipid II (prepared as described above at 1–5 mM total lipid concentration) were titrated to 100 nM plectasin in 50 mM HEPES, 150 mM NaCl at pH = 7.2. Fluorescence was excited at 280 nm (5 nm slit) and recorded between 300 and 400 nm (10 nm slit) at 1 nm intervals with 1 s averaging per point. Spectra were corrected for a blank using buffer and for scattering using a titration series in the absence of plectasin. Corrected spectra were fit with log-normal distributions, and the shift of the resulting wavelength of maximum fluorescence (Δλmax) as a function of lipid II concentration on the outside of the vesicles was fit using a quadratic binding equation[54] to obtain the binding affinities.

S. pneumoniae ATCC6305 = assay: MIC assays under standard conditions; assay type: cell-based, Streptococcus pneumoniae; details: Supplementary Table 1; cation-adjusted MHB + 5% lysed horse blood, 5% CO2, 20–24 h
Method in brief: (§1)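 Broth microdilution in cation-adjusted MHB, inoculum from OD600 0.5 TSB culture diluted 100-fold, 37 °C with shaking. Streptococci: 5% lysed horse blood, 5% CO2, MIC read visually at 20–24 h; S. simulans read at 16–20 h.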

S. pneumoniae serotype 8 = assay: MIC assays under standard conditions; assay type: cell-based, Streptococcus pneumoniae; details: Supplementary Table 1; cation-adjusted MHB + 5% lysed horse blood, 5% CO2, 20–24 h
Method in brief: as §1

S. simulans [4] = assay: DPH anisotropy membrane fluidity measurements; assay type: cell-based, Staphylococcus simulans; details: intact S. simulans cells, 1 µM plectasin, 37 °C, biological triplicates
Description: Preparation of S. simulans stock solutions was done as described above for bacterial permeabilization in PBS. About 1 ml of a cell suspension of OD600 = 0.1 in PBS was treated with 1 µM plectasin and incubated at 37 °C. All assays were performed on a Cary Eclipse (FL0904M005) fluorometer fitted with a manual polarizer accessory (Varian). Measurements were conducted at 37 °C under constant stirring in a 4 × 10 mm quartz cuvette. About 10 µM DPH was added from a 1 mM stock in dimethyl sulfoxide (bringing the final dimethyl sulfoxide concentration to 1 vol%) and incubated for 5 min. Fluorescence was excited with 380 nm light (10 nm slit) and recorded between 430 and 520 nm (10 nm slit) with 0.5 s averaging time and data interval of 1.66 nm per point. Fluorescence anisotropy was calculated using the maximum intensity of each spectrum according to the following equation (where IVV and IVH represent the fluorescence intensity using parallel and orthogonal excitation and emission polarization filters, respectively): r=IVV−IVH/IVV+2IVH

S. simulans [5] = assay: Bacterial permeabilization assay (DiSC2(5), SYTOX green); assay type: cell-based, Staphylococcus simulans; details: DiSC2(5) and SYTOX green, concentrations higher than the MIC, 20 °C
Description: Overnight cultures (37 °C, TSB) of S. simulans were diluted to OD600 = 0.1 and grown until mid-log phase (OD600 = 0.5–0.8) and collected by centrifugation (2,000 × g, room temperature, 5 min). Cell pellets were washed with buffer (10 mM Tris, 50 mM NaCl and 0.5% w/v glucose at pH = 7.2), resuspended to OD600 = 10 and stored at 4 °C until use. All assays were performed on a Cary Eclipse (FL0904M005) fluorometer. Measurements were done using bacterial suspensions at OD600 = 0.05 in the aforementioned buffer under constant stirring at 20 °C in a 4 × 10 mm quartz cuvette. About 0.2 µM 3,3′-diethylthiadicarbocyanine iodide or 0.25 µM SYTOX green was added and equilibrated for 2 min before addition of an antibiotic. For 3,3′-diethylthiadicarbocyanine iodide, we used excitation and emission wavelengths of 650 nm and 670 nm, respectively, while for SYTOX green, we used 504 nm and 523 nm. About 5 nm slits were used, and fluorescence signal was averaged every 0.3 s.

[6] = HS-AFM oligomerization on supported lipid bilayers doped with lipid II; details: DOPC/DOPG (1:1), 1% lipid II, 1 mM Ca^2+
Description: HS-AFM imaging was performed on a supported lipid bilayer deposited on mica using an amplitude modulation tapping mode HS-AFM from RIBM (Ando type)[11]. The lipid compositions are as stated in the experimental conditions of the corresponding results. Short cantilevers (∼7 μm) with a nominal spring constant of 0.15 N m^−1 were used (USC-F1.2-k0.15, NanoWorld) for all experiments. A minimal imaging force was applied by using a small set-point amplitude, typically 80% of the free amplitude (for 1–2 nm of free amplitude). […] Imaging was started on the lipid bilayer surface in recording buffer. […] All reported experiments were repeated for at least three times for each condition. Image analysis was done using Igor Pro version 6.22 (Wavemetrics) with RIBM script and ImageJ version 1.501 with minimal image corrections (tilt, drift and background corrections). The time stamps on HS-AFM videos are relative to plectasin addition into the liquid chamber. Image acquisition rate varied from 0.5 frames per second to 2 frames per second (see the figure/video legends).

## CC[C@H](C)[C@@H]1NC(=O)[C@H](CO)NC(=O)[C@H](CCCCN)NC(=O)[C@@H]2CSSC[C@@H](C(=O)N[C@@H](Cc3ccc(O)cc3)C(=O)O)NC(=O)[C@H](CCCCN)NC(=O)[C@@H]3CSSC[C@H](NC(=O)[C@H](CCC(N)=O)NC(=O)[C@H](CCSC)NC(=O)[C@H](CC(=O)O)NC(=O)[C@H](CC(=O)O)NC(=O)[C@H](CCC(=O)O)NC(=O)[C@H](CC(=O)O)NC(=O)[C@H](Cc4c[nH]c5ccccc45)NC(=O)[C@@H]4CCCN4C(=O)CNC(=O)[C@H](CC(N)=O)NC(=O)[C@@H](NC(=O)CNC(=O)[C@H](Cc4ccccc4)NC(=O)CN)CSSC[C@H](NC(=O)[C@H](Cc4ccc(O)cc4)NC(=O)CNC(=O)CNC(=O)[C@H](CCCCN)NC(=O)[C@H](Cc4ccc(O)cc4)NC(=O)CNC(=O)[C@H](CCCCN)NC1=O)C(=O)N[C@@H](C)C(=O)N[C@@H](CCCCN)C(=O)NCC(=O)NCC(=O)N[C@@H](Cc1ccccc1)C(=O)N[C@@H](C(C)C)C(=O)N3)C(=O)N[C@@H](Cc1c[nH]cn1)C(=O)N[C@@H](CC(N)=O)C(=O)N[C@@H](Cc1c[nH]cn1)C(=O)N2 [Plectasin wt]
Mammalian cells
  toxicity against mammalian cells: lack of plectasin toxicity against mammalian cells
[1]
  Kd: 195 ± 35 nM
[2]
  lipid II cluster/domain formation on GUVs: cluster formation
S. pyogenes M3
  Minimum inhibitory concentration, S. pyogenes M3: ≤ 0,012 μg/mL
[3]; DOPC liposomes, 1 mM Mg^2+
  Kd: 80 nM
[3]; DOPC liposomes, without bivalent ions (100 μM EDTA)
  Kd: 155 nM
[3]; anionic DOPC/DOPG (1:1) liposomes, 1 mM Ca^2+
  Kd: 1 nM
[3]; anionic DOPC/DOPG (1:1) liposomes, 1 mM Mg^2+
  Kd: 4 nM
[3]; anionic DOPC/DOPG (1:1) liposomes, without bivalent ions (100 μM EDTA)
  Kd: 27 nM
[3]; neutral DOPC liposomes, with Ca^2+ vs without bivalent ions
  lipid II binding affinity increase in the presence of Ca^2+: > 100 fold
[3]; zwitterionic DOPC liposomes, 2 mol% lipid II, 1 mM Ca^2+, 100 nM plectasin, HEPES pH 7.2, 20 °C
  Kd: 1 nM
S. pneumoniae ATCC6305
  Minimum inhibitory concentration, S. pneumoniae ATCC6305: ≤ 0.78 µg/mL
S. pneumoniae serotype 8
  Minimum inhibitory concentration, S. pneumoniae serotype 8: 1,56 μg/mL
S. simulans [4]
  DPH fluorescence anisotropy (membrane fluidity): decrease in the fluorescence anisotropy
S. simulans [5]
  leakage in S. simulans membranes (in words): does not cause leakage
[6]
  plectasin concentration giving full coverage (AFM): 400 nM
  plectasin concentration giving partial coverage (AFM): 300 nM
[6]; 10 min after addition
  plectasin concentration above which supra-structures emerge (AFM): > 200 nM
